Results from PMC13295013 (Nature chemical biology, 2026).

How the values were obtained:
Type in all cases: cell-based
[1] = tested on: pMek levels in CIAR-293 cells; experiment: pMek levels in CIAR-293 cells treated with A115 or DMSO; details: A115 1 h
[2] = tested on: pErk levels in Mia PaCa-2 cells; experiment: Raf inhibitor and Mek inhibitor cotreatments, pErk, Mia PaCa-2 cells
[3] = biological target: high-affinity Raf:Mek interactions (Homo sapiens, UniProt Q02750); experiment: Co-immunoprecipitation of Raf with Mek from Mia PaCa-2 cells treated with partial inhibitory doses of Mek inhibitors; details: 4 h
Chain of high-affinity Raf:Mek interactions (Q02750 whole entry): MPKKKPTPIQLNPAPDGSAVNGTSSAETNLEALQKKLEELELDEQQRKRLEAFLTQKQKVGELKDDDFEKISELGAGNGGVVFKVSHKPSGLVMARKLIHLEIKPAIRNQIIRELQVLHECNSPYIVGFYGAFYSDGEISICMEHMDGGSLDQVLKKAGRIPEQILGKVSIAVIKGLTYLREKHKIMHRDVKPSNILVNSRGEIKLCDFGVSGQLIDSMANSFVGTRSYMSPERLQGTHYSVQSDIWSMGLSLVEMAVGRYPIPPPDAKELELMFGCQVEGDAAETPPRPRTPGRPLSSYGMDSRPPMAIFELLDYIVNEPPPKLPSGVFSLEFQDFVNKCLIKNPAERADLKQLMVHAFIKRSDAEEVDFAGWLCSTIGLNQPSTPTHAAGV

[4] = tested on: pMek levels in mutant KRas-expressing lines; experiment: pMek levels in mutant KRas-expressing cell lines treated with Mek inhibitors; details: multiple mutant KRas-expressing lines, 4 h
[5] = tested on: pErk levels in CIAR-293 cells; experiment: Inhibitor titrations in CIAR-293 cells (pErk); details: A115 or DMSO 1 h, then LXH-254 3 h
ARaf:CRaf heterodimers = ARaf:CRaf heterodimers (Homo sapiens, UniProt P04049+P10398); experiment: Co-immunoprecipitation of ARaf with CRaf in MiaPaCa-2 cells treated with LXH-254; details: Mia PaCa-2 cells
Chain of ARaf:CRaf heterodimers (P10398 whole entry): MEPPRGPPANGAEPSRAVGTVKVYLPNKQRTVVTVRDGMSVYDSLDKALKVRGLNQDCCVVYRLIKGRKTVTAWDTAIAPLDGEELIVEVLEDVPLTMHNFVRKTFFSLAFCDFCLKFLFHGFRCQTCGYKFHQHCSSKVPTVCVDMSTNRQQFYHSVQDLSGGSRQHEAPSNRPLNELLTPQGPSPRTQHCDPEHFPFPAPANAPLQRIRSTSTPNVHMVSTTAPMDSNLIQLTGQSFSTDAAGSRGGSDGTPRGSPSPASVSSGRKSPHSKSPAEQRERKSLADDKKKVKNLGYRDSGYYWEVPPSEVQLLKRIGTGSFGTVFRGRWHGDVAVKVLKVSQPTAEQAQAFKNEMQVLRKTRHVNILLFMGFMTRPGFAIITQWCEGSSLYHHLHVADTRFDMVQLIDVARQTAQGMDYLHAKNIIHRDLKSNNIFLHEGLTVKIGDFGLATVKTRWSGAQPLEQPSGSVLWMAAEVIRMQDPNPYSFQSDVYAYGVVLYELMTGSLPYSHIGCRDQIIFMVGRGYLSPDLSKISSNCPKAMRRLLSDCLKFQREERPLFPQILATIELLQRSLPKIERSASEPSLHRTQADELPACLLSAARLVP
Chain of ARaf:CRaf heterodimers (P04049 whole entry): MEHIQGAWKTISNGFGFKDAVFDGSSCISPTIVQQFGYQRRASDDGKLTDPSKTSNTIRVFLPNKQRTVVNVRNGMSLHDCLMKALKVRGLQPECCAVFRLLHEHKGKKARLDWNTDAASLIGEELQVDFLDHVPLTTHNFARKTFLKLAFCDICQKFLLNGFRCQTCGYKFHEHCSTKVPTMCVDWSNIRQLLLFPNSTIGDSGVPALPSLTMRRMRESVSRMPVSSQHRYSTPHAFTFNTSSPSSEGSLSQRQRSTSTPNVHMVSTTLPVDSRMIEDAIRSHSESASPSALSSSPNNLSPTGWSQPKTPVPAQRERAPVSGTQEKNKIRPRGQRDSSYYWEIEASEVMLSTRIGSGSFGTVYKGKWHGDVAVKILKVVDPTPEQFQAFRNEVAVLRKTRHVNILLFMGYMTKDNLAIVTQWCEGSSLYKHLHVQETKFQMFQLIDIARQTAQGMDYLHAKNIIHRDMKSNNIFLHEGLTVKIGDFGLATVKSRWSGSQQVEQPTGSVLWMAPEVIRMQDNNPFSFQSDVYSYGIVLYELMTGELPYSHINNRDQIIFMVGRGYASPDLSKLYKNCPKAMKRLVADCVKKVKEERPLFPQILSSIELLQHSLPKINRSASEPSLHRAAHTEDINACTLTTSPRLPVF

[6] = tested on: pErk levels in Mia Paca-2 cells (single encorafenib-occupied Raf dimers); experiment: Encorafenib and LXH-254 cotreatment, pErk, Mia Paca-2 cells; details: encorafenib 1 h, then LXH-254 3 h
[7] = tested on: pErk levels in HCT-116 (G13D KRas/WT Raf) cells; experiment: LXH-254 titration, pErk western blot, HCT-116 cells
[8] = tested on: pErk levels in MDA-MB-453 cells (single encorafenib-occupied Raf dimers); experiment: Encorafenib and LXH-254 cotreatment, pErk, MDA-MB-453 cells; details: encorafenib 1 h, then LXH-254 3 h
[9] = tested on: pErk levels in Mia PaCa-2 cells; experiment: LXH-254 titration, pErk western blot, Mia PaCa-2 cells; details: at 10–50 μM LXH-254
[10] = tested on: pErk levels in MDA-MB-231 cells; experiment: LXH-254 titration, pErk western blot, MDA-MB-231 cells; details: 4 h LXH-254 treatment
[11] = tested on: pErk levels in HCT-116 cells (single encorafenib-occupied Raf dimers); experiment: Encorafenib and LXH-254 cotreatment, pErk, HCT-116 cells; details: encorafenib 1 h, then LXH-254 3 h
[12] = tested on: pErk levels in MDA-MB-453 cells; experiment: LXH-254 titration, pErk western blot, MDA-MB-453 cells; details: 4 h LXH-254 treatment
[13] = tested on: pErk levels in MDA-MB-453 cells; experiment: Bliss synergy analysis of cobimetinib/LXH-254 pErk titration data, MDA-MB-453 cells; details: combination with LXH-254, MDA-MB-453 cells, p < 0.05
[14] = Mia Paca-2 cells, partial (~85%) inhibitory dose 1 h, then LXH-254 3 h

CN(C)CC#Cc1ccc(OCCCc2sc(N3CCc4cccc(C(=O)Nc5nc6ccccc6s5)c4C3)nc2C(=O)O)c(F)c1 [A115]
pMek levels upon A115 treatment versus DMSO [1]: four-fold higher

CNS(=O)(=O)Nc1nccc(Cc2c(C)c3ccc(Oc4ncccn4)cc3oc2=O)c1F [CH5126766]
effect of Mek inhibitor pretreatment on LXH-254 pErk IC50 / inhibitory activity [2, 14]: potently antagonizes
effect on high-affinity Raf:Mek interactions [3]: promoted
effect on pMek (Mek activation) relative to DMSO [4]: either reduced or minimally affected

Cc1ccc(NC(=O)c2ccnc(C(F)(F)F)c2)cc1-c1cc(OCCO)nc(N2CCOCC2)c1 [LXH-254]
change of pErk IC50 in A115-treated versus DMSO-treated CIAR-293 cells [5]: four-fold lower
IC50 ([2]; Homo sapiens, MIA PaCa-2, read-out: LXH-254 pErk IC50, DMSO pretreatment): 590 nM
LXH-254 concentrations at which ARaf was recruited into heterodimers with CRaf (ARaf:CRaf heterodimers): 10 to 50 µM
decrease in LXH-254 pErk IC50 after encorafenib pretreatment and washout [6]: ~ 30 fold
pErk IC50 ([7]; 4 h LXH-254 treatment): double-digit nanomolar
treatment time at which maximal and stable inhibition of downstream signaling (pErk) was achieved ([7]; time course, 32 nM LXH-254, n=1): 4 h
decrease in LXH-254 pErk IC50 after encorafenib pretreatment and washout [8]: ~ 20 fold
decrease of pErk levels [9]: > 80%
pErk IC50 [10]: double-digit nanomolar
decrease in LXH-254 pErk IC50 after encorafenib pretreatment and washout [11]: 2-3 fold
pErk IC50 [12]: micromolar

O=C(c1ccc(F)c(F)c1Nc1ccc(I)cc1F)N1CC(O)([C@@H]2CCCCN2)C1 [cobimetinib]
increase in LXH-254's potency (pErk IC50) after Mek inhibitor pretreatment [2, 14]: ~ 4 fold
average Bliss score [13]: 8.72
effect on high-affinity Raf:Mek interactions [3]: disrupted
effect on pMek (Mek activation) relative to DMSO [4]: greatly enhanced
